Source: PMC3037030 (Biochimica et biophysica acta, 2010)
Read-outs that look alike come from different tables or passages of the source. One block for each compound: values may come before it.

Experiments:
Acsl4 [1] = biological target: T1, Acsl4 (Rattus norvegicus, UniProt O35547); test: radiometric acyl-CoA synthetase assay; assay type: biochemical; details: read-out: Substrate / AA
Acsl4 [2] = biological target: T1, Acsl4; test: radiometric acyl-CoA synthetase assay; assay type: biochemical
Acsl4 [3] = biological target: T1, Acsl4; assay type: biochemical
Acsl4 [4] = biological target: T1, Acsl4; test: radiometric acyl-CoA synthetase assay, […] inhibition at […]; assay type: cell-based; details: read-out: % inhibition at 10 μM
Acsl3 = Acsl3 (Rattus norvegicus, UniProt Q63151); test: as above; assay type: cell-based; details: read-out: % inhibition at 10 μM
Chain of Acsl3 (Q63151 whole entry): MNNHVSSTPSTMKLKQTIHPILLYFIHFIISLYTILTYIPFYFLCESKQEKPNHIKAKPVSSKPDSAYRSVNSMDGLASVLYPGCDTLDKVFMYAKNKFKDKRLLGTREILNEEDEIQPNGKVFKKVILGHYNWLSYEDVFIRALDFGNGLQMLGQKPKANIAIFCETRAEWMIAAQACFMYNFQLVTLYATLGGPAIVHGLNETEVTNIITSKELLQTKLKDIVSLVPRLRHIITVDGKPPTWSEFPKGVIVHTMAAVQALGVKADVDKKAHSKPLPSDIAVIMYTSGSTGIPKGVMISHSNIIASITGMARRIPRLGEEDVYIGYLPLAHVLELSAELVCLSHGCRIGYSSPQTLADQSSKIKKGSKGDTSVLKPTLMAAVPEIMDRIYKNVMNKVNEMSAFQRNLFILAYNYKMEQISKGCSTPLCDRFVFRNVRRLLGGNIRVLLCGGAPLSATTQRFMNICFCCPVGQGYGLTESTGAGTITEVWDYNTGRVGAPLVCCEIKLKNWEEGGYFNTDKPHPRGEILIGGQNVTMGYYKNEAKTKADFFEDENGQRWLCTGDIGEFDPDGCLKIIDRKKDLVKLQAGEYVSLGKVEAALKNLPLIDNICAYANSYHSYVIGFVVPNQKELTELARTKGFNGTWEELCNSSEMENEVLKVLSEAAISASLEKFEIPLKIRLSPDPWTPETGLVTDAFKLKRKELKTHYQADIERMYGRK

T1 sequence (O35547 whole entry): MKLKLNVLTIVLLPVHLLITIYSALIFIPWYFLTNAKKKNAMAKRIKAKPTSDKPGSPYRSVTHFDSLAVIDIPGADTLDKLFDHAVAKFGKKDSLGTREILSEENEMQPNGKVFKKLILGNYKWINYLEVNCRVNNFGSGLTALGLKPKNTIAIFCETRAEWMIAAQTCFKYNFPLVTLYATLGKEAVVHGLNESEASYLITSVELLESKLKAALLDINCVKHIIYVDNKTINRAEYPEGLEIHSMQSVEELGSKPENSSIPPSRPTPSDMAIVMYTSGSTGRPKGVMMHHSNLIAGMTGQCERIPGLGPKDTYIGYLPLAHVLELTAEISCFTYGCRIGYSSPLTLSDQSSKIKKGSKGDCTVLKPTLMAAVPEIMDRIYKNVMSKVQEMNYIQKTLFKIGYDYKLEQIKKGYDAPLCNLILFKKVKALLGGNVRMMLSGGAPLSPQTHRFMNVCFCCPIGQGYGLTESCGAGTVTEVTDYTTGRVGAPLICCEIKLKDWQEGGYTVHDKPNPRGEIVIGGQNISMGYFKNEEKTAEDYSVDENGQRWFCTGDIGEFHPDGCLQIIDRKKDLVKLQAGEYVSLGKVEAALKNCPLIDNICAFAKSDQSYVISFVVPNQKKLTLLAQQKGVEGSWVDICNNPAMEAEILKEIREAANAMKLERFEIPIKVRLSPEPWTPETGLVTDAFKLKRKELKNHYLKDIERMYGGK

Structure (SMILES): CCCCC/C=C\C/C=C\C/C=C\C/C=C\CCCC(=O)O [AA, arachidonic acid]
Km (Acsl4 [1]): 4.98 ± 1.41 µM

Km (Acsl4 [2]; read-out: Substrate / DHA): 26.6 ± 3.95 µM
Structure (SMILES): CC/C=C\C/C=C\C/C=C\C/C=C\C/C=C\C/C=C\CCC(=O)O [DHA, docosahexaenoic acid]

Ki (Acsl4 [3]): 24.9 ± 2.61 mM
Structure (SMILES): CCCC(CCC)C(=O)O [VPA, valproate]

Km (Acsl4 [2]; read-out: Substrate / Palmitic Acid): 16.7 ± 6.25 µM
Structure (SMILES): CCCCCCCCCCCCCCCC(=O)O [palmitic acid]

Structure (SMILES): CCC/C=C/C/C=C/C=C/C=N/NN=O [triacsin C]
inhibition at 10 µM (Acsl4 [4]): 85%
inhibition at 10 µM (Acsl3): 90%
